{"source": "paper PMC12682947", "about": "“Identification of New KCNT1‐Epilepsy Drugs by In Silico, Cell, and Drosophila Modeling” (Annals of Neurology, 2025)", "tested_on": "Drosophila mutant KCNT1 lines (G288S, R398Q, R928C)", "assay": "Bang-sensitive behavioral seizure assay, statements for all three Drosophila mutant KCNT1 lines", "format": "in vivo, Drosophila melanogaster", "details": "for effect on seizure activity (in words): drug in food, 1 nM to 1 μM, each of the three mutant lines", "text": "The Drosophila melanogaster lines carrying the WT human KCNT1 transgene (NM_020822_3) or KCNT1 mutant G288S, R398Q or R928C transgene placed downstream of the yeast UAS promoter, have been described previously.[11] WT or mutant human UAS‐KCNT1 flies were crossed to flies expressing the GAL4 transcriptional activator under the control of the GAD1 promoter (GABAergic driver, Bloomington stock number 51630 P2) to drive expression of KCNT1 in GABAergic neurons, involved in neuronal inhibition.[11]\nThe bang‐sensitive behavioral assay (also known as the banging assay) was used to test for the presence of a seizure phenotype in Drosophila.[11], [30] Experiments were performed and scored, as previously described,[11] with a minimum of 50 Drosophila tested for each genotype and drug concentration.\nFour drugs were selected for in vivo analysis to determine their effects on the seizure phenotypes in transgenic Drosophila lines with human mutant KCNT1 channels. Bepridil, a nonselective KCNT1 inhibitor was included for comparison. Drosophila food with and without drugs was prepared as previously described.[11] All chemicals were obtained from Sigma‐Aldrich (Gillingham, UK) apart from antrafenine hydrochloride (Toronto Research Chemicals, Canada) and regorafenib (USP, Germany).\nDrosophila crosses were set up, and the resulting embryos were collected, as previously described.[11] A range of concentrations of each drug dissolved in Drosophila food, between 0.001 μM and 1 μM, were used in the experiments. Multiple replicates were performed for each dosage of the drugs and controls. Controls were vehicle controlled (VC), which was the normal food with just the solvent ethanol present (1 μl/1 ml) in the Drosophila food, and normal food (NF) control where no drug or solvent (ethanol) was added in the Drosophila food.\nIn all experiments, experimenters were not blinded to variants or treatments, nor were samples randomly assigned to groups. Sample sizes were not calculated in advance and no data were excluded from the analysis. Data were analyzed using GraphPad Prism 9 software (San Diego, CA, USA). All values are reported as mean ± standard error of the mean (SEM). All data passed normality and lognormality Shapiro–Wilk tests, determined by GraphPad Prism 9. In the experiments analyzing the effects of drugs in Drosophila, statistical significance of differences between groups was determined using Brown‐Forsythe and Welch's analysis of variance (ANOVA) tests (Supplementary Table S3), assuming non‐equal SDs, followed by Dunnett's multiple comparisons tests (GraphPad Prism 9). The results of the Dunnett's multiple comparisons tests are shown in Supplementary Table S4, where “N” represents independent trials using independent fly crosses, with the total number of flies for each condition shown in brackets.", "note": "Counter-ions that a name gives are not always drawn."}
{"smiles": "O=C(OCCN1CCN(c2cccc(C(F)(F)F)c2)CC1)c1ccccc1Nc1ccnc2cc(C(F)(F)F)ccc12", "note": "[antrafenine]", "values": [{"measurement": "effect on seizure activity (in words)", "value": "significantly reduce the seizure activity"}]}
{"smiles": "CC(C)c1c(C(=O)Nc2ccccc2)c(-c2ccccc2)c(-c2ccc(F)cc2)n1CC[C@@H](O)C[C@@H](O)CC(=O)O", "note": "[atorvastatin]", "values": [{"measurement": "viability of adult flies", "setting": "1 μM in food", "value": "reduced viability"}, {"measurement": "effect on seizure activity (in words)", "value": "did not show a significant effect"}]}
{"smiles": "Cc1c(O)cccc1C(=O)N[C@@H](CSc1ccccc1)[C@H](O)CN1C[C@H]2CCCC[C@H]2C[C@H]1C(=O)NC(C)(C)C", "note": "[nelfinavir mesylate]", "values": [{"measurement": "effect on seizure activity (in words)", "value": "significantly reduce the seizure activity"}]}
{"smiles": "CNC(=O)c1cc(Oc2ccc(NC(=O)Nc3ccc(Cl)c(C(F)(F)F)c3)c(F)c2)ccn1", "note": "[regorafenib]", "values": [{"measurement": "effect on seizure activity (in words)", "value": "did not show a significant effect"}]}
